# Measured values from US20140127269A1, “Anti-Inflammatory Peptide Derived From Thrombospondin-1 and Uses Thereof” (THE SCHEPENS EYE RESEARCH INSTITUTE, INC., priority 2012, published 2014).
# Assays:
# [1] = tested on: CD4+ T cells derived from the spleen and lymph node; assay: Treg and inflammatory effector cells in ova/CFA-immunized mice (flow cytometry); format: in vivo; settings: 10 μg on day 1, 3 and 5 post-immunization, analysed day 7; compared to control peptide
# Procedure: To determine if such an expansion of Treg cells by TSP-peptide is possible in vivo, and whether it can reduce the typical IL-17 or IFNγ-producing inflammatory effectors, mice were immunized with an ovalbumin (ova) antigen in Complete Freund's Adjuvant (CFA). This is a commonly used experimental approach to generate antigen-specific inflammatory effectors. These ova-immunized mice were treated with either control or TSP-peptide (10 μg; SEQ ID NO:1) on day 1, 3 and 5 post-immunization. On day 7 post-immunization, the CD4+ T cells derived from the spleen and lymph node of these mice were analyzed by flow cytometry to determine the numbers of Foxp3+ Treg cells and the expression patterns of the inflammatory cytokines, IL-17 and […].
# Lymph nodes were harvested from immunized mice treated with either control or TSP-peptide 7 days post-immunization. Lymph node cells were cultured in the presence of PMA (10 ng/ml), ionomycin (200 ng/ml) and Brefeldin A for 20 hr at 37 degrees C. Cell surface CD4 and CD25 and intracellular Foxp3, IFNgamma and IL-17 were detected using fluorochrome-conjugated antibodies followed by flow cytometric analysis.
# [2] = tested on: experimental mouse model of autoimmune uveitis (IRBP-immunized mice); assay: Experimental autoimmune uveitis, i.p. peptide treatment, clinical disease score; format: in vivo, C57BL/6 mice; settings: i.p. 10 microgram on day 1, 3 and 5 post-immunization; scored for 26 days; compared to control peptide
# Procedure: (§1) The expansion of Treg cells and the reduction of inflammatory effector cells was evaluated in an experimental mouse model of autoimmune uveitis to determine if the TSP-1 peptide reduced disease severity. […] The inflammatory response in the retina is monitored and scored regularly on the basis of severity by examining the fundus.
# C57BL/6 mice were immunized subcutaneously, on day 0, with 200 microgram IRBP in complete Freund's adjuvant per mouse followed by i.p. injection of Pertussis toxin (0.1 microgram). On day 1, 3 and 5 post-immunization mice received i.p. injection of 10 microgram of either control or TSP-peptide. Clinical disease score was recorded for the 26 days post-immunization.
# [3] = tested on: experimental mouse model of autoimmune uveitis (IRBP-immunized mice); assay: Experimental autoimmune uveitis, topical peptide treatment, clinical disease score and lymph node Th17/Treg transcription factor message; format: in vivo, C57BL/6 mice; settings: for disease severity / ocular inflammation (clinical disease score): topical 10 microgram per mouse (5 microgram per eye) once per day, day 1 to 7, scored for 26 days, compared to control peptide
# Procedure: as §1
# For topical administration, 10 microgram per mouse (5 microgram per eye) was administered for the duration of 7 days. TSP peptide was administered topically once per day for 7 days post-immunization with IRBP-CFA. 1 microgram per microliter solution was used for the eye drops, i.e., 0.1% solution used as 5 microliter per eye resulting in total 10 microliter (10 microgram) per mouse. A liquid formulation was used in topical application as well as when peptide was administered intraperitoneally.
# C57BL/6 mice were immunized subcutaneously, on day 0, with 200 microgram IRBP in complete Freund's adjuvant per mouse followed by i.p. injection of Pertussis toxin (0.1 microgram). From day 1 to day 7 pos-immunization total 10 microgram of control or TSP-peptide was administered topically (5 micrograms/5 microliters per eye). Clinical disease score was recorded for the 26 days post-immunization.
# CD4+CD25− T cells = assay: Treg induction from anti-CD3-activated CD4+CD25- T cells in vitro (flow cytometry, TGFbeta ELISA); format: cell-based
# Procedure: Purified CD4+CD25− T cells were stimulated with plate-bound anti-CD3 antibody for 48 hr at 37 degrees C. in the presence of 10 microM TSP-peptide or control peptide. Activated T cells were washed and subjected to 2 cycles of amplification, 48 hr each, in the presence of T cell growth factor IL-2 (50 U/ml). Proliferated T cells were then stained using fluorochrome-conjugated antibodies to label surface CD4 and CD25 and intracellular Foxp3. Stained cells were analyzed using a flow cytometer. Culture supernatants collected from cells after initial 48 hr culture were tested for the content of TGFbeta using an ELISA.
# [4] = topical treatment, relative to control peptide
sequence,measurement,setting,value
"KRFYVVMWKK (listed as Homo sapiens) [4N1K, 4N1 flanked with 2 Lys residues]",numbers of Foxp3-expressing Treg cells,[1],increased numbers
same,numbers of IFN-γ-expressing CD4 effectors,[1],reduced numbers
same,numbers of IL-17-expressing CD4 effectors,[1],reduced numbers
same,disease severity (clinical disease score),[2],significantly reduced
same,disease severity / ocular inflammation (clinical disease score),[3],significantly reduced
same,disease severity / ocular inflammation (clinical disease score),[3]; listed as TSP-1 peptide,reduction of ocular inflammation
same,anti-inflammatory Treg cells in the lymph nodes (transcriptional factor message),[3]; [4],enhancement
same,pro-inflammatory Th17 cells in the lymph nodes (transcriptional factor message),[3]; [4],decline
same,number of cells expressing Foxp3 and CD25,"CD4+CD25− T cells; 10 microM peptide, 48 hr anti-CD3 activation, then 2 cycles IL-2, compared to control peptide (4NGG)",significantly increased
same,synthesis of immunosuppressive cytokine TGF-β1,"CD4+CD25− T cells; 10 microM peptide, culture supernatant after initial 48 hr, ELISA",increased
same,induction of Treg cells in vitro,CD4+CD25− T cells; in vitro,effectively induces Treg cells
